Results as given in patent US9155752B2, “Liver function-improving agent” (UENO FINE CHEMICALS INDUSTRY, LTD., priority 2012, dated 2015).
“Also recorded” adds a separate entry of the source.

System: NASH mice
Assay: Sirius Red staining of liver, fibrosis area % (Test Example 3)
Format: in vivo
Conditions: for Fibrosis area % (Sirius Red staining), mean ± standard deviation: 8 weeks of age; for Fibrosis area %, Significant difference: Bonferroni, 5% level, tendency at 10% level
Description: A solid diet CE-2 (lipid 4.6% by weight, manufactured by CLEA Japan, Inc.) was used as a normal diet. A solid diet, High Fat Diet 32 (lipid 32.0% by weight, sucrose 6.75% by weight, manufactured by CLEA Japan, Inc.), was used as a sucrose-containing high fat diet. As a maltitol-containing high-fat diet, a special diet (lipid 32.0% by weight, maltitol 6.08% by weight; manufactured by CLEA Japan, Inc.) obtained by replacing the total amount (6.75% by weight) of sucrose in a solid diet, High Fat Diet 32, with powdered maltitol (Whole Crystalline Maltitol Ueno 60M (purity of maltitol: 90%), manufactured by Ueno Fine Chemicals Industry Ltd.) was used. Sodium hypochlorite (PURELOX-S, manufactured by OYALOX Co., Ltd.) was added to pure water prepared by Elix-UV pure water producing apparatus, to a final concentration of 0.00009%, so that pure water for use in the test was obtained. An aqueous maltitol solution was prepared by dissolving powdered maltitol (Whole Crystalline Maltitol Ueno 60M (purity of maltitol: 90%), manufactured by Ueno Fine Chemicals Industry Ltd.) in pure water to a concentration of 1.8% (weight/volume). The purity of maltitol in the aqueous maltitol solution was 1.62%. Twenty-one female SPF mice (C57BL/6J, produced by CLEA Japan, Inc.) on day 14 of pregnancy were purchased and acclimation was performed. All animals were allowed to make a natural birth and a born male was used to produce a model. In addition, the weaning was at 4 weeks after birth. Streptozotocin (Sigma-Aldrich Japan K.K.) was adjusted to a concentration of 10 mg/mL with a physiological saline solution (manufactured by Otsuka Pharmaceutical Factory, Inc.) and the solution was subcutaneously administered once to the back of 2-day-old male mice at a dose of 20 μL/mouse (200 μg/mouse). Afterwards, the mother animal took care of the baby until weaning. The weaning was on day 28±2 after birth. After the weaning, a normal diet was supplied ad libitum to animals receiving no streptozotocin (normal mice (group S1 and group 1)), and a sucrose-containing high fat diet was supplied ad libitum to animals receiving streptozotocin (NASH mice (group S2, group 2, group 3, and group 4). A normal diet was supplied ad libitum to normal mice (group 1). With respect to NASH mice, a sucrose-containing high fat diet was supplied ad libitum to the sucrose group (group 2), and a maltitol-containing high fat diet was supplied ad libitum to the maltitol-low dose group (group 3) and the maltitol-high dose group (group 4). An aqueous maltitol solution was supplied ad libitum only to the maltitol-high dose group (group 4) of 5 to 8 weeks of age, and pure water was supplied ad libitum to the groups other than group 4 of 5 to 8 weeks of age. Six male animals per group were assigned to groups S1 and S2, reared up to 5 weeks of age, and then necropsied. Eight male animals per group were assigned to groups 1, 2, 3 and 4, reared up to 8 weeks of age, and then necropsied. At scheduled necropsy of the animals of 5 or 8 weeks of age, all individuals were anesthetized with diethyl ether (manufactured by Sigma-Aldrich Japan K.K.) and a needle through which heparin sodium (Novo Heparin Injection 1000, manufactured by Mochida Pharmaceutical Co., Ltd.) had been passed was punctured to the heart to aspirate the whole blood, leading to euthanasia, followed by harvest of the organ. […]

Compound | Fibrosis area % (Sirius Red staining), mean ± standard deviation (Group 2, sucrose group: HFD32 (sucrose 6.75%) + pure water) [%] | Fibrosis area %, Significant difference (Group 3 (low-dose maltitol) vs sucrose group (group 2)) | Fibrosis area % (Sirius Red staining), mean ± standard deviation (Group 3, low-dose maltitol: HFD32-M (maltitol 6.08%) + pure water) [%] | Fibrosis area %, Significant difference (Group 4 (high-dose maltitol) vs sucrose group (group 2)) | Fibrosis area % (Sirius Red staining), mean ± standard deviation (Group 4, high-dose maltitol: HFD32-M (maltitol 6.08%) + aqueous maltitol solution 1.62%) [%]
OC[C@H]1O[C@@](CO)(O[C@H]2O[C@H](CO)[C@@H](O)[C@H](O)[C@H]2O)[C@@H](O)[C@@H]1O [sucrose, reference compound] | 1.09 ± 0.23 | – | – | – | –
OC[C@@H](O)[C@@H](O[C@H]1O[C@H](CO)[C@@H](O)[C@H](O)[C@H]1O)[C@H](O)[C@@H](O)CO [maltitol] | – | tendency to be low; also recorded: Tendency to be different | 0.89 ± 0.15 | tendency to be low; also recorded: Tendency to be different | 0.86 ± 0.27
